Source: patent US5789531A, “Peptide-based inhibitors of HIV replication” (Allex Biopharmaceuticals, Inc., priority 1995, dated 1998)
Values joined by “and” are separate entries in the source; they are usually repeats but may differ in a detail not shown here. Equal values may be shown once. Read-outs that look alike come from different tables or passages of the source.

Columns and labels:
tat = settings: Green et al, Cell 1989, 58:215; cited from earlier work
HIV (strain NL4-3) = type: cell-based; settings: for PH Titers: HuT78 cells, 5 uM pretreatment, 10 uM after infection
Excerpt: Controls used water in place of peptide.

[1] = test system: truncated functional form of TAR RNA (SEQ ID NO:13); assay: RNA gel mobility shift TAR-binding assay; design: species or system HIV; settings: relative to tat (1-86) and the oligopeptide representing the tat basic domain
Method: This assay generally involves the incubation of a selected oligopeptide with gel-purified, radio-labelled TAR RNA, or tat-binding fragment of TAR RNA, that has been produced either by direct synthesis or through transcription of a corresponding DNA template. Samples are loaded onto non-denaturing polyacrylamide gel and subjected to electrophoresis, and then migration of labelled RNA through the gel is visualized on gel-exposed, X-ray film. Oligopeptides which bind TAR are identified in this assay by their characteristic, retarded migration on the gel, relative to TAR RNA to which no oligopeptide has bound. In this mobility shift assay, oligopeptides having an "enhanced" affinity for binding TAR RNA will resolve on the gel as bands which, in addition to displaying the retarded migration pattern characteristic of TAR-binding oligopeptides, will also appear with greater intensity and/or size than a band containing TAR RNA bound to tat (1-86).
(§1) TAR-binding affinity of the oligopeptides relative to HIV tat(1-86) and relative to tat fragments representing the tat basic domain, was evaluated by RNA gel mobility shift assay using as ligand a truncated functional form of TAR RNA having the sequence (SEQ ID NO:13) shown below.
Synthesis of the TAR fragment and its variant analogue was accomplished as described by Roy et al. in Genes and Development, 1990, 4:1365. […]

HuT78 cells = assay: Host cell replication in presence of peptide
yeast tRNA = assay: TAR binding compared with yeast tRNA binding
[2] = test system: variant of TAR (SEQ ID NO:14) which does not bind tat; assay: RNA gel mobility shift assay with non-functional TAR variant (specificity); type: binding, HIV; settings: functional TAR fragment vs non-functional TAR variant
Method: as §1
Synthesis of the TAR fragment and its variant analogue was accomplished as described by Roy et al. in Genes and Development, 1990, 4:1365. The TAR-binding assay was also performed in the manner reported by Roy et al, supra, which is incorporated herein by reference.

Arg--Lys--Lys--Arg--Arg--Gln--Arg--Arg--Arg
tat antagonist activity (tat): Weak tat antagonist activity

CC(=O)N[C@H](CCCNC(=N)N)C(=O)N[C@H](CCCCN)C(=O)N[C@H](CCCCN)C(=O)N[C@H](CCCNC(=N)N)C(=O)N[C@H](CCCNC(=N)N)C(=O)N[C@H](CCC(N)=O)C(=O)N[C@H](CCCNC(=N)N)C(=O)N[C@H](CCCNC(=N)N)C(=O)N[C@H](CCCNC(=N)N)C(N)=O [4G, acetyl-[D-(Arg--Lys--Lys--Arg--Arg--Gln--Arg--Arg--Arg)]--NH2]
HIV inhibition / resistance to viral infection (HIV (strain NL4-3); 5 uM concentration): positive effects on HIV inhibition
PH Titers (HIV (strain NL4-3); 7 Day Pretreatment, Day 4 after infection, listed as 4G1): 312.1 pg/mL
PH Titers (HIV (strain NL4-3); 7 Day Pretreatment, Day 4 after infection, listed as 4G2): 336.1 pg/mL
PH Titers (HIV (strain NL4-3); 7 Day Pretreatment, Day 7 after infection, listed as 4G1): 371.5 pg/mL
PH Titers (HIV (strain NL4-3); 7 Day Pretreatment, Day 7 after infection, listed as 4G2): 446.8 pg/mL
PH Titers (HIV (strain NL4-3); 24 Hrs Pretreatment, Day 4 after infection, listed as 4G1): 340.9 pg/mL
PH Titers (HIV (strain NL4-3); 24 Hrs Pretreatment, Day 4 after infection, listed as 4G2): 356.9 pg/mL
PH Titers (HIV (strain NL4-3); 24 Hrs Pretreatment, Day 7 after infection, listed as 4G1): 721.1 pg/mL
PH Titers (HIV (strain NL4-3); 24 Hrs Pretreatment, Day 7 after infection, listed as 4G2): 851.8 pg/mL

CC(=O)N[C@H](CCCNC(=N)N)C(=O)N[C@H](CCCNC(=N)N)C(=O)N[C@H](CCCNC(=N)N)C(=O)N[C@H](CCCNC(=N)N)C(=O)N[C@H](CCCNC(=N)N)C(=O)N[C@H](CCCNC(=N)N)C(=O)N[C@H](CCCNC(=N)N)C(=O)N[C@H](CCCNC(=N)N)C(=O)N[C@H](CCCNC(=N)N)C(N)=O [4C, acetyl-[D-Arg]9 --NH2]
TAR-binding affinity [1]: TAR-binding affinity comparable to the basic domain of wild type tat
PH Titers (HIV (strain NL4-3); 7 Day Pretreatment, Day 4 after infection, listed as 4C1): 168.4 pg/mL and 98.08 pg/mL
PH Titers (HIV (strain NL4-3); 7 Day Pretreatment, Day 4 after infection, listed as 4C2): 131.5 pg/mL and 93.76 pg/mL
PH Titers (HIV (strain NL4-3); 14 Day Pretreatment, Day 4 after infection, listed as 4C1): 152.5 pg/mL
PH Titers (HIV (strain NL4-3); 14 Day Pretreatment, Day 4 after infection, listed as 4C2): 129.0 pg/mL
PH Titers (HIV (strain NL4-3); 14 Day Pretreatment, Day 7 after infection, listed as 4C1): 175.1 pg/mL
PH Titers (HIV (strain NL4-3); 14 Day Pretreatment, Day 7 after infection, listed as 4C2): 133.6 pg/mL
inhibition of viral replication, as measured by p24 assay (HIV (strain NL4-3); at the concentration tested (5 uM), FIG. 1): ≥ 95%
inhibition of host cell replication (HuT78 cells; 5 uM): no apparent inhibition of host cell replication
effect on cell replication (HuT78 cells; 100 uM, separate experiments): no significant detrimental effect on cell replication
specificity of TAR binding compared with yeast tRNA binding (yeast tRNA): specificity of binding has also been confirmed
specificity for binding to the functional TAR fragment relative to the TAR variant [2]: specificity comparable to the wild type basic domain
